Calls of active or inactive are those of the source. The rule behind the calls is not given here.
System: CCRIS mutagenicity, Ames/micronucleus/aberration tests
Assay: CCRIS mutagenicity studies
Settings: Test System: AMES SALMONELLA TYPHIMURIUM
[1] = Strain/Indicator: TA100, Metabolic Activation: NONE, Method: STANDARD PLATE

Compound | mutagenic call (Strain/Indicator: TA97A, Metabolic Activation: NONE, Method: PREINCUBATION) | mutagenic call (Strain/Indicator: TA97A, Metabolic Activation: RAT, CECAL CELL-FREE EXTRACT, Method: PREINCUBATION) | mutagenic call (Strain/Indicator: TA97A, Metabolic Activation: RAT, LIVER, S9, AROCLOR 1254, Method: PREINCUBATION) | mutagenic call (Strain/Indicator: TA98, Metabolic Activation: NONE, Method: PREINCUBATION) | mutagenic call (Strain/Indicator: TA98, Metabolic Activation: RAT, CECAL CELL-FREE EXTRACT, Method: PREINCUBATION) | mutagenic call (Strain/Indicator: TA98, Metabolic Activation: RAT, LIVER, S9, AROCLOR 1254, Method: PREINCUBATION) | mutagenic call (Strain/Indicator: TA100, Metabolic Activation: NONE, Method: PREINCUBATION) | mutagenic call (Strain/Indicator: TA100, Metabolic Activation: RAT, CECAL CELL-FREE EXTRACT, Method: PREINCUBATION) | mutagenic call (Strain/Indicator: TA100, Metabolic Activation: RAT, LIVER, S9, AROCLOR 1254, Method: PREINCUBATION) | mutagenic call [1] | mutagenic call (Strain/Indicator: TA100, Metabolic Activation: RAT, LIVER, S-9, AROCLOR 1254, Method: STANDARD PLATE) | mutagenic call (Strain/Indicator: TA102, Metabolic Activation: NONE, Method: STANDARD PLATE) | mutagenic call (Strain/Indicator: TA102, Metabolic Activation: RAT, LIVER, S-9, AROCLOR 1254, Method: STANDARD PLATE) | mutagenic call (Strain/Indicator: TA1535, Metabolic Activation: NONE, Method: STANDARD PLATE) | mutagenic call (Strain/Indicator: TA1535, Metabolic Activation: RAT, LIVER, S-9, AROCLOR 1254, Method: STANDARD PLATE) | mutagenic call (Strain/Indicator: TA98, Metabolic Activation: NONE, Method: STANDARD PLATE) | mutagenic call (Strain/Indicator: TA98, Metabolic Activation: S-9, Method: STANDARD PLATE) | mutagenic call (Strain/Indicator: TA100, Metabolic Activation: S-9, Method: STANDARD PLATE)
Cc1cc2nc3c(=O)[nH]c(=O)nc-3n(C)c2cc1C | inactive; negative | active; positive | active; positive | inactive; negative | inactive; negative | active; positive | inactive; negative | inactive; negative | inactive; negative |  |  |  |  |  |  |  |  | 
CC(C)N(N)C(C)C |  |  |  |  |  |  |  |  |  | inactive; negative | inactive; negative | inactive; negative | inactive; negative | inactive; negative | active; positive |  |  | 
C[C@H]1CC[C@@H]2[C@@H](C)[C@H]3[C@H](C[C@H]4[C@@H]5CC=C6C[C@@H](O[C@@H]7O[C@H](CO)[C@@H](O[C@@H]8O[C@@H](C)[C@H](O)[C@@H](O)[C@H]8O)[C@H](O)[C@H]7O[C@@H]7O[C@@H](C)[C@H](O)[C@@H](O)[C@H]7O)CC[C@]6(C)[C@H]5CC[C@]34C)N2C1 |  |  |  |  |  |  |  |  |  | inactive; negative |  |  |  |  |  | inactive; negative | inactive; negative | inactive; negative
